# B1: NavMs pore-only construct (voltage sensor subdomain removed) (domain or fragment, Magnetococcus spirillium (strain MC-1))
# chain: GVGSVAALLTVVFYIAAVMATNLYGATFPEWFGDLSKSLYTLFQVMTLESWSMGIVRPVMNVHPNAWVFFIPFIMLTTFTVLNLFIGIIVDAMAITKEQEEEAKTGHH
# notes: NavMs of Magnetococcus spirillium (strain MC-1), Uniprot ID printed as AOL5S6 (A0L5S6), pore-only construct without the voltage sensor subdomain; PDB 4F4L is the cited crystal structure of the NavMs pore; also called pore-only NavMs; source: E. coli, purified in decyl maltoside (DM)
# B2: NaChBac, voltage-gated sodium channel from Bacillus halodurans (natural protein, UniProt Q9KCR8 1-274, looked up)
# chain: MKMEARQKQNSFTSKMQKIVNHRAFTFTVIALILFNALIVGIETYPRIYADHKWLFYRIDLVLLWIFTIEIAMRFLASNPKSAFFRSSWNWFDFLIVAAGHIFAGAQFVTVLRILRVLRVLRAISVVPSLRRLVDALVMTIPALGNILILMSIFFYIFAVIGTMLFQHVSPEYFGNLQLSLLTLFQVVTLESWASGVMRPIFAEVPWSWLYFVSFVLIGTFIIFNLFIGVIVNNVEKAELTDNEEDGEADGLKQEISALRKDVAELKSLLKQSK
# notes: NaChBac, voltage-gated sodium channel of Bacillus halodurans, Uniprot ID Q9KCR8, full length; pET15b vector was bought; source: E. coli, purified (DDM solubilisation, Ni-NTA in Cymal-5, thrombin, gel filtration)
# How the values were obtained:
# [1] = molecular target: T1, pore-only NavMs (Magnetococcus marinus, UniProt A0L5S6); experiment: […]+ uptake into proteoliposomes; format: biochemical; conditions: 3:1 POPE:guest lipid, pH 7.5, 60 min; small but significant activation
# T1 construct: gene Mmc1_0798; purified from decyl maltoside; tetramer; reconstituted in liposomes
# T1 sequence (A0L5S6 130-237): B1 chain
# [2] = molecular target: T2, NaChBac (Halalkalibacterium halodurans, UniProt Q9KCR8); experiment: […]+ uptake into proteoliposomes; format: biochemical; conditions: 3:1 POPE:guest lipid, pH 7.5, 120 min; activator, greatest activity of guest lipids tested, modest variation
# T2 construct: gene BH1501; full-length, expressed in E. coli, hexa-His tag cleaved with thrombin; ~31 kDa monomer; tetramer; reconstituted in liposomes
# T2 sequence (Q9KCR8 1-274): B2 chain
# [3] = molecular target: T3, NavMs (Magnetococcus marinus, UniProt A0L5S6); experiment: […]+ uptake into proteoliposomes; format: biochemical; conditions: 3:1 POPE:guest lipid, pH 7.5, 60 min; activator, greatest activity of guest lipids tested
# T3 construct: gene Mmc1_0798; expressed in E. coli, hexa-His tag cleaved with thrombin; tetramer; reconstituted in liposomes
# T3 sequence (A0L5S6 1-239 limits assumed): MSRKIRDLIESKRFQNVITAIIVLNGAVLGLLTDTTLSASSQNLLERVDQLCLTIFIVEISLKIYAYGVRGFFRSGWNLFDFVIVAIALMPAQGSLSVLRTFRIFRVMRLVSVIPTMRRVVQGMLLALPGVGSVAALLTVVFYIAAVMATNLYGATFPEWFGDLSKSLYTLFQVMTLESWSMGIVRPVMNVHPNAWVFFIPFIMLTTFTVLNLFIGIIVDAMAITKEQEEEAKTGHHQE
# [4] = molecular target: NavSp pore-only construct (voltage sensor subdomain removed) (Silicibacter pomeroyi); experiment: SEC; gel filtration of pore-only constructs in decyl maltoside (0.2% DM); elution at tetramer mass plus DM micelle (~30 kDa)
# [5] = molecular target: NavSp, voltage-gated sodium channel from Silicibacter pomeroyi (Silicibacter pomeroyi) (UniProt F7IVA8); experiment: SEC; Superdex 200 10/300 GL; 10 mM Tris-HCl pH 7.5, 100 mM NaCl, 0.02% NaN3, 0.25% Cymal-5; elution at tetramer mass plus Cymal-5 micelle (~23 kDa)
# [6] = molecular target: T4, NavSp (Ruegeria pomeroyi, UniProt F7IVA8); experiment: […]+ uptake into proteoliposomes; format: biochemical; conditions: 3:1 POPE:PI liposomes with 1% PI(4,5)P2, pH 7.5; inhibitor
# T4 construct: gene SPO0030; full-length, expressed in E. coli, N-terminal hexa-His tag cleaved with thrombin; 258 amino acids; ~29 kDa monomer; tetramer; reconstituted in liposomes
# T4 sequence (F7IVA8 1-258): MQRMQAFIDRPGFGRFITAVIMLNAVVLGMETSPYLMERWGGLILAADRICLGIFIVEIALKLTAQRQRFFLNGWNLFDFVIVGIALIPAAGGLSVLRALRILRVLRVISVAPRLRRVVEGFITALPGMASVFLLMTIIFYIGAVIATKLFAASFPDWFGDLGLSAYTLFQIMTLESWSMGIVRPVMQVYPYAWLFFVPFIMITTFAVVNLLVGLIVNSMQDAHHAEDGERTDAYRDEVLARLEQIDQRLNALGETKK
# [7] = molecular target: the molecule itself; experiment: SEC; gel filtration of pore-only constructs in decyl maltoside (0.2% DM); elution at tetramer mass plus DM micelle (~30 kDa)
# [8] = molecular target: the molecule itself; experiment: SEC; Superdex 200 10/300 GL; 10 mM Tris-HCl pH 7.5, 100 mM NaCl, 0.02% NaN3, 0.25% Cymal-5; elution at tetramer mass plus Cymal-5 micelle (~23 kDa)
molecule,measurement,setting,value
"CCCCCCCC/C=C\CCCCCCCC(=O)OC[C@H](COP(=O)(O)OCC(O)COP(=O)(O)OC[C@@H](COC(=O)CCCCCCC/C=C\CCCCCCCC)OC(=O)CCCCCCC/C=C\CCCCCCCC)OC(=O)CCCCCCC/C=C\CCCCCCCC (some centres unmarked) [CL, 18∶1 cardiolipin]",22Na+ uptake into proteoliposomes,[1],small but significant increase in activity when CL was present in the liposomes
"CCCCCCCC/C=C\CCCCCCCC(=O)O[C@H](COC(=O)CCCCCCCCCCCCCCC)COP(=O)(O)OCC(O)CO (some centres unmarked) [PG, 1-palmitoyl 2-oleoyl phospatidyl glycerol]",22Na+ uptake into proteoliposomes,[2],NavMs and NaChBac also showed maximal activity with a negatively-charged lipid
same,22Na+ uptake into proteoliposomes,[3],NavMs and NaChBac also showed maximal activity with a negatively-charged lipid
NavSp pore-only construct (voltage sensor subdomain removed) (domain or fragment),stoichiometry N,[4],4
"NavSp, voltage-gated sodium channel from Silicibacter pomeroyi (from UniProt F7IVA8 1-258) (natural protein)",stoichiometry N,[5],4
"phosphatidylinositol 4,5-bisphosphate [PI(4,5)P2]","% inhibition at 1% PI(4,5)P2",[6],~ 50%
B1,stoichiometry N,[7],4
B2,stoichiometry N,[8],4
